Entries after “also recorded” stand apart in the source; their conditions may differ.
Key:
Format in all cases: in vivo
MRL-lpr mice [1] = test: Protein urine scores in MRL-lpr mouse model of SLE; details: once daily s.c. for 6 weeks from 8 weeks of age, A(1-7) 0.5 mg/kg, Compound 7 2 mg/kg, compared to saline treated MRL-lpr mice
Description: Protein urine scores. At necropsy a final measurement or proteinuria was done using Urinalysis Reagent Strips (Mountainside Medical Equipment; Marcy, N.Y.). Protein scores signify the level of protein measured in the urine of each mouse and are scored as; 1-15 mg/dl protein, 2-30 mg/dl protein, 3-100 mg/dl protein and 4-300 mg/dl protein.
(§1) Our study uses the MRL/MpJ-Fas^lpr/J (MRL-lpr) as a mouse model of SLE and MRL/MpJ mice as controls (control mice do develop SLE but at a much later stage in life). These mice were broken into 4 groups that received once daily subcutaneous injections of treatment starting at 8 weeks of age for 6 weeks: a MRL/MpJ group (n=5) dosed daily with saline, an MRL-lpr group (n=8) dosed with saline, an MRL/MpJ group (n=8) dosed with 0.5 mg/kg of A(1-7), and an MRL/MpJ group (n=8) dosed with 2 mg/kg of Compound 7 (in an aqueous Tween 20 formulation). Throughout the study, the mice were monitored for proteinuria and face lesions. At necropsy, the kidneys and peripheral blood were harvested. The kidneys sections were stained with hematoxylin & eosin (H&E) for evaluation of glomerular health. Blood samples were processed and the plasma was stored at −20° C. for measurement of anti-dsDNA antibodies.

MRL-lpr mice [2] = test: Glomerulonephritis scores (H&E kidney sections) in MRL-lpr mouse model of SLE; details: once daily s.c. for 6 weeks, A(1-7) 0.5 mg/kg, Compound 7 2 mg/kg, compared to saline treated MRL-lpr mice
Description: Glomerulonephritis scores. Twenty glomeruli from kidney sections stained with H&E were scored for each mouse and a mean score was calculated. The glomerulonephritis score was based on a previously published score of 0-4 based on histopathological changes^6. The scores were defined as: 0, kidney without glomerular lesions; 1, minimal thickening of the mesangium; 2, noticeable increase in both mesangial and glomerular capillary cellularity; 3, preceding conditions, along with superimposed inflammatory exudates and capsular adhesions; 4, obliteration of the glomerular architecture included >70% of glomeruli.
as §1, with “Blood samples were processed and the plasma was stored at −20° C. for measurement of anti-dsDNA antibodies.” left out

MRL-lpr mice [3] = test: Face rash scores in MRL-lpr mouse model of SLE; details: scored 19, 25, 30, 37 and 40 days after start of treatment, A(1-7) 0.5 mg/kg, Compound 7 2 mg/kg s.c. daily, compared to saline treated MRL-lpr mice
From the text: Face rash scores. Mice were monitored daily for skin lesions. Scores of lesions of the face were taken 19, 25, 30, 37 and 40 days after the start of treatment; pictures were taken at different time points throughout the study. Face rash scores were based on location and extent of inflammation and hair loss as follows: 0, no noticeable irritation; 1, little redness, no hair loss or inflammation; 2, minimal rash, little hair loss or inflammation; 3, moderate rash, increased hair loss, light inflammation; 4, pronounced rash, near total hair loss and obvious inflammation; 5, rash is spreading up to the top of the face; 6, obvious wound above nose.
as §1

MRL-lpr mice [4] = test: Lymph node weights (inguinal and axillary) in MRL-lpr mouse model of SLE; details: 6 weeks of treatment, A(1-7) 0.5 mg/kg, Compound 7 2 mg/kg s.c. daily, compared to saline treated MRL-lpr mice
From the text: Lymph node weights. At necropsy, inguinal and axillary lymph nodes were dissected and trimmed of any surrounding fatty tissues. They were then weighed using an Adventurer precision balance (Ohaus Corporation, Parsippany, N.J.).
as §1

MRL-lpr mice [5] = test: Anti-dsDNA IgG titers in plasma (ELISA) in MRL-lpr mouse model of SLE; details: plasma at necropsy after 6 weeks of treatment, A(1-7) 0.5 mg/kg, Compound 7 2 mg/kg s.c. daily, compared to saline treated MRL-lpr mice
Description: Anti-dsDNA IgG titers. Peripheral blood was collected at necropsy by cardiac puncture with a 1 mL syringe fitted with a 22G needle, transferred into 2 ml K3E K3EDTA VACUETTE® tubes, and stored on ice. The tubes were then spun at 1,500 RPM for 15 min at 4° C. The plasma (top layer) was collected and stored at −20° C. The plasma was then diluted at 1:100 and used in a Mouse Anti-DNA IgG Antibody ELISA Kits (Chondrex Inc, Redmond, Wash.). The average concentration of duplicate samples was calculated against a standard curve and averaged for each mouse.
as §1, with “Blood samples were processed and the plasma was stored at −20° C. for measurement of anti-dsDNA antibodies.” left out

Compound	protein urine score (proteinuria) at final measurement (MRL-lpr mice [1])	glomerulonephritis score (glomerular pathologies) (MRL-lpr mice [2])	face rash score (inflammation and hair loss) (MRL-lpr mice [3])	inguinal and axillary lymph node weight (size) at necropsy (MRL-lpr mice [4])	concentration of circulating anti-dsDNA IgG antibodies in plasma (MRL-lpr mice [5])	face rash score (inflammation and hair loss) (MRL-lpr mice [3]; listed as compound 7)
Asp-Arg-Val-Tyr-Ile-His-Pro (DRVYIHP) [A(1-7), endogenous Mas receptor ligand angiotensin 1-7]	significantly lower protein scores	significantly reduced the glomerular pathologies	significantly less overall pathologies; also recorded: significantly lower score than the saline treated MRL-lrp mice throughout the study	reduced the size of both lymph nodes; also recorded: significantly smaller	significantly lower levels of circulating IgG antibodies against dsDNA; also recorded: significantly lower concentrations	–
CCCCOC(=O)NS(=O)(=O)c1ccc(OC(F)(F)F)cc1-c1ccc(Cn2ccnc2)cn1 [Compound 7]	significantly lower protein scores	significantly reduced the glomerular pathologies	significantly lower only at day 19 and 37	reduced the size of both lymph nodes; also recorded: reduced the size but not significantly	significantly lower levels of circulating IgG antibodies against dsDNA; also recorded: significantly lower concentrations	significantly less overall pathologies
